# Data published in US9980925B2, “Xanthohumol in antiarrythmic applications” (University of South Carolina, priority 2016, dated 2018).
# “Also recorded” adds a separate entry of the source.
# Assays:
# Type in all cases: cell-based
# [1] = tested on: rat ventricular cardiomyocyte; assay: ROS production from DCF fluorescence in ventricular myocytes incubated with H2DCFDA
# Method: A Noran Odyssey XL rapid two-dimensional laser-scanning confocal microscope (Noran Instruments, Madison, Wis.; Zeiss Axiovert TV135) was used with a x63 water-immersion objective, λex=488 nm and λem>515 nm to measure kinetics and subcellular distribution of fluorescence signals according to known protocols. Ca^2+ was imaged after 20- to 30-minute incubation with fluo-4 AM (2 μM). ROS was measured by incubating cells with H2DCFDA (5 μM for 30 minutes), which is cleaved by esterases to form less permeant 2′,7′-dichlorodihydrofluorescein that is then oxidized by free radical compounds to fluorescent 2′,7′-dichlorofluorescein (DCF) as described previously. Fluorescence images of ROS were recorded at low fluorescence intensity and frame rate (about 1 Hz) and required considerable signal averaging (FIG. 1).
# Measurements of ROS were also carried out using the oxygen-radical sensitive dye 2′,7′-dichlorofluorescein (DCF) (5 μM). The effect of the xanthohumol was compared with the antioxidant N-acetyl cysteine (10 mM).
# ROS production was evaluated from the rate of increase in DCF fluorescence in ventricular myocytes incubated with H2DCFDA.
# [2] = tested on: rat ventricular myocytes; assay: Global whole-cell Ca2+ transients in field-stimulated cells (Fluo-4 AM); conditions: for increase in Ca2+-transient peaks following a 30-second train of high-frequency stimulation: 0.5 to 2 Hz
# Method: (§1) Whole-cell Ca^2+ transients occurring spontaneously or evoked electrically by field stimulation or voltage-clamp depolarizations or by rapid application of caffeine (2.5 mM for 0.5 or 1 second) were measured fluorometrically after incubating the cells in fluo-4 AM (2 μM) for 30 minutes. The dye was excited by 460 nm light from a LED-based illuminator (Prismatix, Modiin (lite, Israel), and Ca^2+-dependent fluorescent light (>500 nm) was detected with a photomultiplier tube that was placed behind a moveable, adjustable diaphragm, which served to limit the area of detection to the voltage-clamped cell. The cellular fluorescence signals (ΔF/F0) were normalized by dividing the changes in whole-cell fluorescence (ΔF) with the baseline fluorescence (F0).
# Effects of xanthohumol on cardiac Ca^2+ signaling were evaluated in enzymatically dispersed ventricular myocytes that were subjected to field stimulation or voltage-clamp depolarizations in the whole-cell, perforated patch configuration to activate Ca^2+ current (ICa) and SR Ca^2+ release.
# (§2) The cells were incubated with fluo-4 AM for 30 minutes to allow fluorometric imaging of Ca^2+ sparks and measurements of whole-cell Ca^2+ transients. Rapid perfusion of caffeine was used to release, and SR Ca^2+ stores and assesses their size according to known methodology. Xanthohumol was tested in the range from 5 nM to 1 μM and was used routinely either with acute application of 50 nM drug or by incubation of cells in 10 nM xanthohumol-containing solutions for 30 minutes. All cells were first perfused with Tyrode's solution (137 mM NaCl, 10 mM HEPES, 10 mM glucose, 5.4 mM KCl, 2 mM CaCl, 1 mM MgCl) and thereafter were subjected to the following in the absence or presence of xanthohumol:
# (§3) Each experimental condition was typically sustained for 2-8 minutes to achieve equilibration. To avoid cell damage due to continuous light exposure, recordings were generally performed for intervals of only 5-10 seconds, but repeated every minute. Cells challenged with isoproterenol or low K^+ typically developed more abundant spontaneous Ca^2+ sparks and interdispersed irregular whole-cell Ca^2+ transients, especially in the absence of xanthohumol.
# [3] = tested on: rat ventricular myocytes; assay: SR Ca2+ content and refilling after caffeine-induced Ca2+ release
# Method: as §1, §2
# The aim of this set of experiments was to examine the effect of the xanthohumol on the SR Ca^2+ content and its recirculation. FIG. 14 compares the magnitude of Ca^2+ transients in electrically stimulated cells paced at 0.5 Hz to Ca^2+ transient that was produced when one stimulus was replaced by a rapid application of 2.5 mM caffeine for 1 second. […] It was concluded that xanthohumol suppresses slightly the Ca^2+ content of the SR, but this effect was fully reversed by isoproterenol.
# To probe the effect of xanthohumol on recirculation of SR Ca^2+ and its refilling following depletion of its content by caffeine, the rate of recovery of electrically triggered Ca^2+ transients back to control levels was quantified as a measure of refilling of the SR store. […].
# [4] = tested on: rat ventricular myocytes; assay: Ca2+ spark imaging (Fluo-4 epifluorescence)
# Method: Ca^2+ sparks (Fluo-4, λex=488 nm) were also measured with the LEICA DMI6000 microscope in the epifluorescence mode but now operating at 60-100 frames/s (FIG. 3, FIG. 4 (panels A-C); FIG. 5, FIG. 6, and FIG. 7); the average baseline fluorescence intensity (F0) was calculated from several frames without indication of spontaneous Ca^2+ signals in the form of sparks or waves. Images were filtered by 2 pixel×2 pixel averaging. The amplitudes of the Ca^2+-dependent cellular fluorescence signals were quantified as ΔF/F0, where ΔF is the change in fluorescence measured within selected regions of interest. The time constant of decay of Ca^2+ transients (Tau) was estimated by approximation with a single exponential.
# as §2, §3
# [5] = target: T1, L-type Ca^2+ current (ICa) (Rattus norvegicus, UniProt P22002); assay: Voltage-clamp recording of L-type Ca2+ current (perforated patch)
# T1 construct: enzymatically dispersed ventricular myocytes that were subjected to field stimulation or voltage-clamp depolarizations; endogenous in cells; host or cells: freshly isolated ventricular cardiomyocytes of male Sprague-Dawley rats
# Method: (§4) Cells were voltage-clamped in the whole-cell perforated patch configuration at a holding potential of −50 or −60 mV and depolarized to +10 mV to activate L-type Ca^2+ current (ICa) and Ca^2+-induced Ca^2+ release using a Dagan amplifier and pClamp software (Clampex 10.2). Borosilicate patch pipettes were prepared using a horizontal pipette puller (Model P-87; Sutter Instruments, Novato, Calif.). […] Rapid applications of 2.5 mM caffeine and pharmacological interventions were used to elucidate the action mechanism of xanthohumol. Most experiments were performed at 35° C. Voltage-clamp experiments testing dose response were performed at both 25° C. and 35° C.
# The effects of xanthohumol on Ca^2+ signaling parameters was compared using concentrations ranging between 1 nM and 1 μM. The experiments were carried out under perforated patch conditions both at room temperature and 35° C. Ventricular myocytes incubated in fluo-4 AM were activated by 100-ms depolarizing pulses from −50 to 10 m versus at room temperature. Ca^2+ current was suppressed by xanthohumol when the concentrations of the drug exceeded 100 nM (FIG. 16, panel A). […] At room temperatures, xanthohumol also slowed the kinetics of relaxation of Ca^2+ transients, as it suppressed its peak, at concentrations exceeding 50 nM (FIG. 16, panels B and C; P<0.001). […] It was concluded that higher metabolic states of myocytes, induced by higher temperatures and adrenergic stimulation, reduce the inhibitory effects of xanthohumol on Ca^2+ transients.
# [6] = tested on: rat ventricular myocytes; assay: Ca2+ transients in voltage-clamped cells (Fluo-4 AM)
# Method: as §4, §1
# The effects of xanthohumol on Ca^2+ signaling parameters was compared using concentrations ranging between 1 nM and 1 μM. The experiments were carried out under perforated patch conditions both at room temperature and 35° C. Ventricular myocytes incubated in fluo-4 AM were activated by 100-ms depolarizing pulses from −50 to 10 m versus at room temperature. Ca^2+ current was suppressed by xanthohumol when the concentrations of the drug exceeded 100 nM (FIG. 16, panel A). […] At room temperatures, xanthohumol also slowed the kinetics of relaxation of Ca^2+ transients, as it suppressed its peak, at concentrations exceeding 50 nM (FIG. 16, panels B and C; P<0.001). […]
# [7] = isoproterenol 100 nM, 0.75 Hz, 35° C.
# [8] = 50-100 nM, 35° C., field-stimulated
# [9] = xanthohumol 50-300 nM co-applied with isoproterenol
# T1 sequence (P22002 whole entry, other chains not shown): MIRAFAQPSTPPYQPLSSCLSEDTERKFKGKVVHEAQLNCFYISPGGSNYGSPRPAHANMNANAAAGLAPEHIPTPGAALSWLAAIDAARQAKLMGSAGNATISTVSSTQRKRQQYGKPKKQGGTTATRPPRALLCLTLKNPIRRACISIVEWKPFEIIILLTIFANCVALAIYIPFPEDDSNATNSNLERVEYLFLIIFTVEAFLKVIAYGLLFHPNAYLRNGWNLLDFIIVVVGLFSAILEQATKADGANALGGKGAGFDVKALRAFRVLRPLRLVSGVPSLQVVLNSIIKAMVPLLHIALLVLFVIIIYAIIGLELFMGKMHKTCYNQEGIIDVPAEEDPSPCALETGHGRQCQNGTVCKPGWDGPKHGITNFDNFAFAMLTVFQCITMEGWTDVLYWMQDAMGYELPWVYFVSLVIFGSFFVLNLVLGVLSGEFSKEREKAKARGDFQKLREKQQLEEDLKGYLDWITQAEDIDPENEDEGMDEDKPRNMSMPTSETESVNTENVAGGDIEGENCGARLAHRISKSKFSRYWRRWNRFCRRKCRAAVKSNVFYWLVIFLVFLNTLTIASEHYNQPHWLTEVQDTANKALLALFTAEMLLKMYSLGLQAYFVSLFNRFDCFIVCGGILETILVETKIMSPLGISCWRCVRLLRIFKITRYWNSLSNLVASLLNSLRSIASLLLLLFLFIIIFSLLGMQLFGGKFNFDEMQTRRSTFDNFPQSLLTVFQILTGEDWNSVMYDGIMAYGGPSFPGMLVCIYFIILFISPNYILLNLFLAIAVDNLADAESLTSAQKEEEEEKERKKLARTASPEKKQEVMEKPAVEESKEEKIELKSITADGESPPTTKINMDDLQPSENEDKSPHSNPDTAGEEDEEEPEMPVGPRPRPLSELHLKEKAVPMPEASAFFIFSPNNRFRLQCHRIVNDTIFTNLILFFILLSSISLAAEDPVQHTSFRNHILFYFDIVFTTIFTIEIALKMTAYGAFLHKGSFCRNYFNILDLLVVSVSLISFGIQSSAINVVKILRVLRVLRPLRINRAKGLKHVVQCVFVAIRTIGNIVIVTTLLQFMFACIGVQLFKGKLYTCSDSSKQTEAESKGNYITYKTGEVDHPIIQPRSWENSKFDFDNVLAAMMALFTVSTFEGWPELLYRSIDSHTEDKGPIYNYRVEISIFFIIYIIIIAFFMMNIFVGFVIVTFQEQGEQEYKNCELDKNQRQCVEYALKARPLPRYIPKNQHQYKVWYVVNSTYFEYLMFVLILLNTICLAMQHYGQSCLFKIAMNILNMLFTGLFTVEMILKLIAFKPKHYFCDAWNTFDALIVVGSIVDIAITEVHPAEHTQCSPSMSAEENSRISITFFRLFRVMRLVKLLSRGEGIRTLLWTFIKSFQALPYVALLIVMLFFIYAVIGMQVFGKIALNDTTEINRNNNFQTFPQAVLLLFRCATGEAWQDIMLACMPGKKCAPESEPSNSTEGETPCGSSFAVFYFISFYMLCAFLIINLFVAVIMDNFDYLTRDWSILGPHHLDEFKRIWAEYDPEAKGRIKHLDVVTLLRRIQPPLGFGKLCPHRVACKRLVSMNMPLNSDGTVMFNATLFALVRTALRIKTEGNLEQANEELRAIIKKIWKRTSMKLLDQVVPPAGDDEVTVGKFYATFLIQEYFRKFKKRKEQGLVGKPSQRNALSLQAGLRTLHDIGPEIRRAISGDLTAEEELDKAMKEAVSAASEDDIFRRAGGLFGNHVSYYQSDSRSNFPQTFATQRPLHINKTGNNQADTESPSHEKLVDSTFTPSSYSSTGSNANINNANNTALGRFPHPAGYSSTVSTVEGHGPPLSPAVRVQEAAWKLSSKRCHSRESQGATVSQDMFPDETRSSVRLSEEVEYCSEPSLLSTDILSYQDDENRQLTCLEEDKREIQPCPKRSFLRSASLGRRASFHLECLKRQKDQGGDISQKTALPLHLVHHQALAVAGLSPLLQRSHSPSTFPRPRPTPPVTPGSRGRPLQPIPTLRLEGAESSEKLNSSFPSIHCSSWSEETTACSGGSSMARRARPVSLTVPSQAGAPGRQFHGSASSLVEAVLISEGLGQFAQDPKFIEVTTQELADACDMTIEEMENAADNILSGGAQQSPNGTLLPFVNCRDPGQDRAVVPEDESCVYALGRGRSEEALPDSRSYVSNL
# T1 sequence (P54290 25-944 partner limits assumed, other chains not shown): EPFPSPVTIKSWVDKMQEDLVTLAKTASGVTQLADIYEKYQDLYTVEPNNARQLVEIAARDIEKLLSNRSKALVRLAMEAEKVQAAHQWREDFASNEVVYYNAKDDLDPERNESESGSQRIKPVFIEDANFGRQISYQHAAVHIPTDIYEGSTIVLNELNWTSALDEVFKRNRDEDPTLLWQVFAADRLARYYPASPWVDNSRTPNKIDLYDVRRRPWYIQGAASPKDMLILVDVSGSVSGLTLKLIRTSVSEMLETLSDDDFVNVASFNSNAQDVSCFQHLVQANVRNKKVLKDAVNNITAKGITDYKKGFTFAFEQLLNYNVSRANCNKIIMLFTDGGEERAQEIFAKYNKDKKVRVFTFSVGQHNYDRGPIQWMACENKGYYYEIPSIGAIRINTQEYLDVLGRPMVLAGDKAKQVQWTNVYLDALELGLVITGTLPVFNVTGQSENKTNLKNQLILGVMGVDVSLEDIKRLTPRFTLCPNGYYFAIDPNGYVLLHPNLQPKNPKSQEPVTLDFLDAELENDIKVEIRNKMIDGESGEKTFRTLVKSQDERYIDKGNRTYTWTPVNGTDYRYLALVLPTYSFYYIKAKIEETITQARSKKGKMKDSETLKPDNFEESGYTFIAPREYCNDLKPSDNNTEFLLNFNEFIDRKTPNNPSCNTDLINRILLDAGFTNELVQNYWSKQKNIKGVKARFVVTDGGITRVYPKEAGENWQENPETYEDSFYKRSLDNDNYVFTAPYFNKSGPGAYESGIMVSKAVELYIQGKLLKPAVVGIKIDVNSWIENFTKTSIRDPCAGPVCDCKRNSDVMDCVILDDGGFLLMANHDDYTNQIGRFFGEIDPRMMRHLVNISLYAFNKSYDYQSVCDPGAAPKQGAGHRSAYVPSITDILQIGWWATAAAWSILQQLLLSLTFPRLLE
# T1 sequence (P54290 945-1091 partner limits assumed, other chains not shown): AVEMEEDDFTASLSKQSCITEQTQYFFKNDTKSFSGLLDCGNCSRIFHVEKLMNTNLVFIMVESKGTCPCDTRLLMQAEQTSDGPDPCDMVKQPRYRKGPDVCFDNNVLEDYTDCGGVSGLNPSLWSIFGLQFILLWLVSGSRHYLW
compound,measurement,setting,value
"CC(=O)N[C@@H](CS)C(=O)O [N-acetyl cysteine, reference compound]",low K+-induced increase of the DCF signal,"[1]; N-acetyl cysteine 10 mM, low K+",suppressed
same,effect on DCF signal after washout,[1]; after N-acetyl cysteine 10 mM,washout rapidly reversed the DCF signal
"CC(C)NCC(O)c1ccc(O)c(O)c1 (stereo not drawn) [isoproterenol, reference compound]",enhancement of rate of relaxation of Ca2+ transients,[2]; [7],about 30%
same,increase in frequency of spontaneous events,[2]; [7],3- to 4 fold
same,increase in amplitude of the Ca2+ transients,"[2]; isoproterenol 100 nM, electrical stimulation 0.75 Hz, 35° C., P=0.0464",50%
same,fraction of the caffeine-releasable Ca2+ pool released by electrical stimulation,"[3]; isoproterenol 100 nM, 0.5 Hz, 35° C.",enhanced
same,increase of peak of the triggered Ca2+ transient,"[3]; isoproterenol 100 nM, paced at 0.5 Hz",74.12%
COc1cc(O)c(CC=C(C)C)c(O)c1C(=O)/C=C/c1ccc(O)cc1 [xanthohumol],effect on DCF signal after washout,[1]; after xanthohumol 50 nM,persisted even after washout
same,low K+ solution-induced increase of the DCF signal,"[1]; xanthohumol 50 nM, low K+ 5.4→1.5 mM",effectively suppressed
same,slope of ROS-dependent DCF fluorescence signal (baseline ROS production),"[1]; xanthohumol 50 nM, uncompensated and background-compensated signal",reduced the slope
same,frequency of Ca2+ sparks evoked by withdrawal of extracellular K+,[4]; 50 nM,markedly decreased
same,time to reduction of spark frequency after application,[4]; acute 10 nM,≤ 2 min
same,spontaneous Ca2+ spark frequency,"[4]; acute 10 nM, control cells with high baseline spark frequency, 5.4 mM K+",consistently reduced
same,spontaneously developed Ca2+ oscillations or sparks,"[4]; incubated 30 minutes in 10 nM, 5.4 mM K+",scarce
same,frequency of sparks/Ca2+ oscillations on reduction of K+ versus non-incubated cells,"[4]; incubated 30 minutes in 10 nM, K+-free solutions, p<0.005",significantly lower
same,time to suppression of aberrant cellular Ca2+ transients,"[2]; 30 nM, electrically stimulated 1 Hz, 25° C.",< 10 s
same,"peak ΔF/F0, F0, or decay time constant (Tau) of electrically triggered Ca2+ transients","[2]; 100 nM, 35° C.",without modifying
same,spontaneously triggered beats induced by rapid electrical stimulation,"[2]; 100 nM, 35° C.",suppressed significantly
same,frequency of spontaneously triggered Ca2+ oscillations,"[2]; 1.5 mM K+, xanthohumol 50 nM",markedly reduced
same,concentrations over which Tau was significantly reduced,"[2]; 0.5 Hz, 35° C. (FIG. 12 C)",over 300 nM
same,toxic concentrations,"[2]; 35° C., electrically stimulated cells",about 1 mM
same,increase in Ca2+-transient peaks following a 30-second train of high-frequency stimulation,"[2]; 50-100 nM xanthohumol, n=4",12.14%±2.662
same,normalized ΔF or F0,"[2]; 50-100 nM, 35° C., 0.5 Hz, statistically insignificant",slight increase
same,aberrant secondary Ca2+ release events,[2]; [8],blocks
same,amplitude of electrically stimulated cellular Ca2+ transients,[2]; [8],without decreasing
same,time for effects of xanthohumol to start to develop,[2]; continuous recordings (FIG. 9),less than 10 seconds
same,Tau of relaxation,"[2]; range of 10-300 nM, 35° C.",without much change
same,isoproterenol-triggered spontaneous events,[2]; [9],strong suppression
same,"various parameters of Ca2+ transients (ΔF/F0, F0, Tau)",[2]; [9],without having a significant effect
same,increase in Ca2+-transient peaks following a 30-second train of high-frequency stimulation,[2]; xanthohumol and isoproterenol (100 nM),5.002%±0.6667
same,modulatory effect on the uptake kinetics (Tau) following Ca2+ release by caffeine,[3]; in presence of xanthohumol (50 nM),completely suppressed
same,fractional Ca2+ release (ΔFStim/ΔFCaff),"[3]; xanthohumol 50 nM, 0.5 Hz, 35° C.",not influenced; also recorded: not significantly reduced
same,rate of refilling of the SR,"[3]; xanthohumol 50 nM, after caffeine depletion",significantly reduced
same,ΔF/F signal of caffeine-induced Ca2+ release (total Ca2+ content of the SR),"[3]; xanthohumol 50 nM, caffeine 2.5 mM 1 second, 0.5 Hz, 35° C.",significantly reduced
same,reduction of peak of the triggered Ca2+ transient,"[3]; xanthohumol 50 nM, paced at 0.5 Hz",22.66%
same,diastolic Ca2+ levels,"[3]; xanthohumol 50 nM, statistically insignificant",slight increase
same,effect on ICa,"[5]; 10 nM, room temperature",little or no effect
same,Ca2+ current,"[5]; 100-300 nM, 35° C.",significantly increased
same,concentration above which Ca2+ current was suppressed,[5]; room temperature,exceeded 100 nM
same,Ca2+ transients,"[6]; 10 nM, room temperature",significantly suppressed
same,concentrations above which significant effects on ΔF/F or rate of decay occurred,[6]; 35° C.,exceeding 300 nM
same,concentrations above which relaxation of Ca2+ transients was slowed and peak suppressed,"[6]; room temperature, P<0.001",exceeding 50 nM
